Patent publication US4692463A, “Antiinflammatory 2,3-didemethylcolchicine and additional derivatives” (The United States of America as represented by the …, priority 1985, dated 1987)

What was measured:
[1] = tested on: swelling produced by injecting carrageenin into the footpad; assay: animal or person; format: in vivo, mice or rats; settings: for Reduction of Swelling 3 hrs / Reduction of Swelling 5 hrs: dose 2 mg/kg i.p.; for Reduction of Swelling 3 hrs: 3 hours after; for Reduction of Swelling 5 hrs: 5 hours after; for minimal effective dose: Mus musculus, ip, classical drugs, carrageenin swelling screen, read-out: Dose level at which active (antiinflammatory)
Description: The antiinflammatory properties of colchinoids can be evaluated in a classical screening that measures the reduction of swelling produced by injecting (i.p.) carrageenin into the footpad of mice or rats and drug treatment. The drugs can be given orally or intraperitoneally.
Drug given in carrageenine or thyrode solution by i.p.

[2] = Toxicity measured in the P388 screen (weight loss in mice); format: in vivo; settings: for Toxicity: dose which caused average weight loss in mice of 3 g or more: P388 screen
Description: ^1 Measured in the P388 screen and defined as dose which caused
average weight loss in mice of 3 g or more.

tubulin protein = format: binding; settings: in vitro

SMILES	Reduction of Swelling 3 hrs [1]	Reduction of Swelling 5 hrs [1]	Toxicity: dose which caused average weight loss in mice of 3 g or more [2]	Toxicity in comparison to colchicine (in words) ([2]; experimental animals)	Binding to tubulin protein in comparison to colchicine (in words) (tubulin protein)	minimal effective dose [1]
COc1c(O)c(O)cc2c1-c1ccc(OC)c(=O)cc1[C@@H](NC(C)=O)CC2 [2,3-Didemethylcolchicine]	70	60	54	much less toxic	bind less	
COc1cc2c(c(OC)c1OC)-c1ccc(OC)c(=O)cc1[C@@H](NC(C)=O)CC2 [Colchicine]	44	45	2.5			
COc1c2c(cc3c1-c1ccc(OC)c(=O)cc1[C@@H](NC(C)=O)CC3)OCO2 [Cornigerine, 2,3-(Methylenedioxy)-2,3-didemethoxycolchicine]	44	47	39			
COc1ccc2c(c1)c(CC(=O)O)c(C)n2C(=O)c1ccc(Cl)cc1 [indomethacine, reference compound]						≥ 100 mg/kg
CCCCC1C(=O)N(c2ccccc2)N(c2ccccc2)C1=O [phenybutazone, reference compound]						≥ 100 mg/kg
